Laboratory results published in PMC4018993, “Use of “one-pot, mix-and-read” peptide-MHC class I tetramers and predictive algorithms to improve detection of cytotoxic T lymphocyte responses in cattle” (Veterinary Research, 2014).
pKd: −log10 of the molar value. “Also recorded” adds a separate entry of the source.

How the values were obtained:
[1] = test system: CTL line Bx63; assay: p-MHC class I tetramer staining of CTL line Bx63; type: cell-based, bovine; details: cell line Bx63; Tp8_379-387-BoLA-3*00101 tetramers
Experimental: (§1) UFC510024] at 14 000 g for 10 min.

[2] = test system: BoLA-6*01301
Experimental: Peptides were purchased from Mimotopes (Victoria, Australia) at a purity of 95% and re-suspended in water containing 0.1% acetic acid at a final concentration of 10 mM and diluted to working concentrations in sterile water. The sequences of T. parva peptide epitopes are as in Table 1.

[3] = test system: CTL line BB007; assay: p-MHC class I tetramer staining of CTL line BB007; type: cell-based, bovine; details: peptide as BoLA-6*01301 tetramer, PE-streptavidin; Figure 1
Experimental: as §1

[4] = test system: CTL line Bx196; assay: p-MHC class I tetramer staining of CTL line Bx196; type: cell-based, bovine; details: cell line printed as 196; Tp2_96-104-BoLA-T2c tetramers
Experimental: as §1

[5] = test system: BoLA-1*02301; assay: p-MHC monomer binding assay, BoLA-1*02301; design: species or system bovine; details: data not shown
Experimental: (§2) Folding of p-MHC class I complexes was assessed with an ELISA assay as described in [35]. […] After an incubation of 48 h at 18 °C, the complexes were transferred to another 96-well plate pre-coated with streptavidin (Nunc, cat# 436014), which captures biotinylated HC, and incubated for three hours at 4 °C. After washing, the W6/32 monoclonal antibody (Santa Cruz Biotechnology, Texas, USA, cat # SC-32235), which binds to a monomorphic epitope on β2m but only when it is incorporated in p-MHC class I complexes, was added for 1 h at 4 °C. After washing, anti-mouse IgG coupled to peroxidase (Sigma Aldrich, cat # A9917-1ML) was added to the plate followed by incubation for an hour at room temperature and further rounds of washes. Colorimetric change was performed by adding the TMB Plus2 “Ready to Use” Substrate (Kem En Tec, cat # 4395H) for 10 min at room temperature. The reaction was stopped by adding H2SO4 (0.3 M) and optical density was measured using an ELISA plate reader at 450 nm. The concentration of MHC class I and β2m molecules used in such assays is normally in the nanomolar range [35]. […] We are in the process of generating a β2m without the extra start methionine, which should allow use of recombinant molecules in the nanomolar range.

[6] = test system: CTL line BV50; assay: p-MHC class I tetramer staining of CTL line BV50; type: cell-based, bovine
Experimental: as §1

[7] = test system: BoLA-T5; assay: peptide-BoLA binding assay, BoLA-T5; design: species or system bovine; details: peptide-BoLA binding assays
Experimental: as §2

[8] = test system: BoLA-3*00101; design: method as in PMID 18070892; details: ref [29]; cited from earlier work
[9] = biological target: BoLA-T7 (bovine); assay: not stated; preliminary data, not shown
[10] = test system: PBMC of BoLA-A18 cattle; assay: ex vivo tetramer staining of PBMC from ITM-vaccinated cattle; details: days 15 to 17 post ITM vaccination, T. parva Muguga 3308; Tp1_214-224-BoLA-6*01301 tetramers; three BoLA-A18 cattle
Experimental: Three cattle of BoLA-A18 haplotype (typed with PCR primers [forward] 5’-[…]-3’ and [reverse] 5’-[…]-3’ specific for BoLA-6*01301) were vaccinated by ITM [24] using the T. parva strain Muguga 3308. Whole blood was collected from these cattle at the day of vaccination (day 0) and every two days till appearance of tetramer positive cells. PBMC were purified on Ficoll paque density gradients at 2500 rpm for 25 min and 5 × 10^5 PBMC were stained with the Tp1_214-224-BoLA-6*01301 tetramer as described in the flow cytometry procedure. This animal experiment was approved by the ILRI IACUC committee [# 2012.10].

[11] = test system: CTL line BB007; assay: multiple staining of tetramer-positive cells (CD8, FasL, perforin); type: cell-based, bovine
Experimental: Flow cytometry data were acquired on a BD FACSCanto™ II instrument (BD Biosciences). Compensation controls for PE, PerCP, FITC and APC were included for automatic compensation by the FACS DIVA software. 10 μL BoLA class I tetramer was used for staining cells (between 2 × 10^5 and 5 × 10^5 cells per sample). CD8 staining was done by incubating cells with ILRI monoclonal antibody ILA51 (IgG1) and using rat anti-mouse IgG1-PerCP (BD; cat # 340272) as the secondary antibody. Staining for perforin was done using anti-human-perforin-FITC (BD Pharmingen, San diego, CA, USA, cat# 556577) and staining for Fas-ligand was done using primary rabbit anti-Fas ligand (Santa Cruz biotechnology, cat no. SC-957) and secondary FITC-coupled anti-rabbit IgG antibody (Sigma, MO, USA, cat# F-0382). All staining were conducted in PBS-0.5% BSA except for intracellular staining with anti-perforin where cells were incubated and stained in PBS-0.1%Saponin-10% FBS. Negative control for intracellular staining was done with anti-dansyl-FITC antibody (BD Pharmingen, San diego, CA, USA, cat# 556577). The data were analyzed using the FlowJo software version 7.6.5.

CGAELNHFL [Tp8_379-387]
tetramer positive cells [1]: about 3%

FAQSLVCVL [Tp2_96-104, irrelevant peptide for BoLA-6*01301]
binding to BoLA-6*01301 (in words) [2]: does not bind BoLA-6*01301
tetramer staining of CTL (in words) [3]: low level smear staining
tetramer positive cells [4]: about 65%

SKADVIAKY [Tp5_87-95]
p-MHC monomer binding to BoLA-1*02301 (in words) [5]: confirmed by p-MHC monomer binding assays; also recorded: does indeed bind both BoLA molecules
co-staining by Tp5_87-95-BoLA-1*02301 (PE) and Tp5_87-95-BoLA-T5 (APC) tetramers (in words) ([6]; CD8-gated, Figure 7C): both tetramers bind the same population of CTL; also recorded: a single TCR can recognize the Tp5_87-95 epitope presented by either BoLA molecule
tetramer staining of BV50 (in words) ([6]; peptide as Tp5_87-95-BoLA-1*02301 tetramer, BV50 and 495 lines tested): The only CTL line stained by this tetramer was BV50
tetramer staining of BV50 (in words) ([6]; peptide as Tp5_87-95-BoLA-T5 tetramer, Figure 7B): also stained by Tp5_87-95-BoLA-T5 p-MHC class I tetramers
peptide-BoLA binding, BoLA-T5 (in words) [7]: does indeed bind both BoLA molecules

TGASIQTTL [Tp4 CTL epitope, control peptide for BoLA-3*00101]
binding to BoLA-3*00101 (in words) [8]: known binder to BoLA-3*00101

Tp7_(206-214) peptide
pKd [9]: 6.60

Tp7_(207-214) peptide
pKd [9]: 6.85

VGYPKVKEEML [Tp1_214-224]
tetramer staining of CTL (in words) [3]: staining of a clear distinct cell population
frequency of Tp1 tetramer positive cells in PBMC [10]: about 1%
CD8 and perforin, triple staining ([11]; Figure 4D): tetramer-positive cells are also positive for CD8 and perforin
CD8 expression of Tp1 tetramer positive cells ([11]; Tp1_214-224-BoLA-6*01301 tetramer, Figure 4A): all Tp1 positive cells in the cell line BB007 were CD8-positive
FasL expression of Tp1 tetramer positive cells ([11]; Tp1_214-224-BoLA-6*01301 tetramer, Figure 4B): FasL-positive
perforin expression of Tp1 tetramer positive cells ([11]; Tp1_214-224-BoLA-6*01301 tetramer, Figure 4C): perforin-positive

YMYRVWSPL
binding to BoLA-6*01301 (in words) [2]: binds to BoLA-6*01301
affinity for BoLA-6*01301 ([2]; control peptide from a bank of random nonamer peptides, binding assay as described in [34]): ≥ 1 nM
tetramer staining of CTL (in words) [3]: very low staining
